From patent publication EP0974351A2, “Medicament for preventing and treating gastrointestinal damage” (JOUVEINAL, priority 1998, dated 2000)

Key:
[1] = tested on: TNBS-Induced Chronic Colonic Allodynia; assay: TNBS-induced chronic colonic allodynia in rats (colonic distension threshold); assay type: in vivo, Male Sprague-Dawley rats; conditions: for Colonic Threshold: TNBS-treated rats, control 43.39, TNBS alone printed 1781; for dose relation of the inhibition of TNBS-induced colonic allodynia: gabapentin 100, 300, 500 mg/kg sc, CI-1008 30, 60, 100, 200 mg/kg sc; for colonic inflammatory effect of TNBS (colon weight, area of hyperemia and necrosis, colonic myeloperoxidase content): sc 30 minutes before measurement, Day 7 after TNBS
Description: GABA analogs were evaluated in rats suffering from chronic visceral allodynia induced by trinitrobenzene sulfonic acid (TNBS).
In humans, digestive disorders are often associated with visceral pain. In these pathologies, the visceral pain threshold is decreased, indicating a visceral hypersensitivity. Consequently, the following study was designed to evaluate the effect of injection of TNBS into the colon on visceral pain threshold in an experimental model of colonic distension.
(§1) Male Sprague-Dawley rats weighing 340 to 400 g were used in the study. The animals were housed three per cage in a regulated environment (20 ± 1°C, 50 ± 5% humidity, with light 8:00 AM to 8:00 PM). Under anethesia (ketamine 80 mg/kg i.p.; acepromazin 12 mg/kg i.p.), TNBS (50 mg/kg), or saline (1.5 mL/kg) was injected into the proximal colon (1 cm from the cecum). After the surgery, animals were individually housed in the regulated environment.
(§2) A balloon catheter (5-6 cm length) was inserted through the anus into the colon and kept in position (tip of balloon 5 cm from the anus) by taping the catheter to the base of the tail. The balloon was progressively inflated by step of 5 mm Hg, from 0 to 75 mm Hg, each step of inflation lasting 30 seconds. Each cycle of colonic distension was controlled by a standard barostat. The threshold corresponds to the pressure which produced the first abdominal contraction, at which time the cycle of distension was discontinued. To determine the colonic threshold, four cycles of distension were performed on the same animal.
In a second series, a group of eight rats treated with TNBS were subjected to a colonic distension session.
In a third series, a group of eight rats treated with TNBS received a subcutaneous (sc) injection of gabapentin or CI-1008 30 minutes prior to initiation of the colonic distension cycle.
(§3) All test compounds were dissolved in saline except TNBS. TNBS was dissolved in EtOH 30% (w/v). Subcutaneous injection of vehicle was given in a volume of […].
(§4) Statistical significance between each group was determined using a one-way ANOVA followed by Student's unpaired t-test. Differences were considered statistically significant at p <0.05.
Pain threshold (pressure of distension inducing the first abdominal contraction) after distal colonic distension was determined at Day 7 in two groups of awake rats: control animals and TNBS-treated animals. […] Inflammatory parameters (colon weight, area of hyperemia and necrosis and colonic myeloperoxidase content) were measured in the proximal colon at Day 7 after TNBS treatment.
Gabapentin (100, 300, and 500 mg/kg sc) and CI-1008 (30, 60, 100, and 200 mg/kg sc) were administered 30 minutes before colonic distension and measurement of the inflammatory parameters.

[2] = tested on: Colonic Threshold in Normal Rats; assay: Colonic distension pain threshold in normal rats; assay type: in vivo, Male Sprague-Dawley rats; conditions: normal rats, control 43.33, NS vs control
Description: as §1, §2
In a first series of experiments, a group of eight rats treated with saline were subjected to a colonic distension session.
as §3, §4

[3] = tested on: Inflammatory Colonic Pain Induced by Intramural Injection of Formalin 5%; assay: Inflammatory colonic pain induced by intramural injection of formalin 5% in rats; assay type: in vivo, Adult female Sprague-Dawley rats; conditions: for % Antinociception: intracolonic formalin 5%, 50 µL/rat; for pain score induced by intracolonic formalin (in words): gabapentin 100, 300, 500 mg/kg sc, CI-1008 100, 200 mg/kg sc
Description: The GABA analogs were evaluated in another model to determine their effect on inflammatory visceral pain.
Administration of formalin into the wall of the rat colon causes acute inflammation and visceral pain. The aim of this study was to evaluate the antinociceptive activity of gabapentin and CI-1008 in visceral pain induced by colonic intrapariental injection of formalin.
Adult female Sprague-Dawley rats weighing 240 to 260 g were used in the study. The animals were housed three per cage in a regulated environment (20 ± 1°C 50 ± 5% humidity, with light 8:00 AM to 8:00 PM) prior to use in the test.
Each test animal was placed in a transparent plastic cage (27 x 43 x 25 cm) with a layer of wood shavings on the floor. Drinking water was available. Cages were placed in such a way that visual interaction between animals was avoided. A mirror was positioned behind each cage to improve the recording of behaviors. Each animal was initially allowed 20 minutes to get used to its surroundings. Anesthesia was then achieved by using isofurane (starting 4%, then 1.5% in a mixture of […] nitrous oxide and 1:3 oxygen). The animal was suspended by its tail, the rectum was gently emptied with a cotton-capped stalk, and a coloscope was inserted through the anus. This designed endoscope has a lateral slot that allows for puncture of the intestinal wall under visual control, using a 51-mm-long needle (26 ga), at about 35 mm from the anal margin. Injected solutions were either 50 µL 5% formalin, or the same volume of isotonic saline. Animals were allowed to recover from anesthesia as soon as the injection was completed (about 1 minute), and the observation period was started and continued for 2 hours. Thirty minutes after the end of the observation test, an IV injection of Evans Blue (1%) was administered, and 30 minutes later the animal was sacrificed. The abdomen was opened. The injection site and the zone of diffusion of Evans Blue were recorded by image analysis software. Data from rats in which the spread of the dye was not restricted to the sigmoid wall were discarded.
As listed in increasing order of pain intensity, these behaviors were: (i) abdominal licking and nibbling (L), (ii) body stretching, i.e., backward extension of the hind limbs (B), (iii) contraction of the flanks, sometimes evolving to a stretching attitude (C), and (iv) whole body contraction, the rat standing with its back curved, occasionally further graded according to the duration of the given episode: W1 for less than 30 seconds, W2 between 30 seconds and 1 minute, and W3 for more than 1 minute. Behaviors were recorded for each animal throughout the 2-hour test on individual charts. A pain score (S) was then calculated for each of the successive 15-minute periods, using the following formula: S = 1L + 2B + 3C + 4W1 + 5W2 + 6W3 [formula] whereby the pain score was proportional to (i) the number of episodes of each selected behavior, and (ii) the coefficient, from 1 to 6, attributed to the given behaviors.
All compounds were dissolved in saline. Subcutaneous injection of vehicle was given in a volume of […]. Formalin was purchased from Prolabo.
Statistical significance between each group was determined by using a one-way ANOVA followed by Student's unpaired t-test. Differences were considered statistically significant at p <0.05.
Hyperalgesia is induced by intramural injection of formalin (5%, 50 µL/rat) into the colonic wall in unfasted female Sprague-Dawley rats. Gabapentin and CI-1008 were tested at 100, 300, 500 and 100, 200 mg/kg sc, respectively. […] The maximal inhibitory effect was observed after 500 mg/kg of gabapentin and 200 mg/kg of CI-1008.

Row | SMILES | Colonic Threshold ([1]; 100 mg/kg sc) [mm Hg] | Colonic Threshold ([1]; 300 mg/kg sc) [mm Hg] | effect of TNBS on colonic pain (in words) ([1]; 500 mg/kg sc) | Colonic Threshold ([1]; 500 mg/kg sc) [mm Hg] | dose relation of the inhibition of TNBS-induced colonic allodynia [1] | colonic inflammatory effect of TNBS (colon weight, area of hyperemia and necrosis, colonic myeloperoxidase content) [1] | Colonic Threshold ([2]; 500 mg/kg sc) [mm Hg] | % Antinociception ([3]; 0.3 mg/kg sc (so in the source)) [%] | % Antinociception ([3]; 100 mg/kg sc) [%] | % Antinociception ([3]; 300 mg/kg sc) [%] | % Antinociception ([3]; 500 mg/kg sc) [%] | pain score induced by intracolonic formalin (in words) [3] | Colonic Threshold ([1]; 30 mg/kg sc 30 min before colonic distension, Day 7) [mm Hg] | Colonic Threshold ([1]; 60 mg/kg sc) [mm Hg] | allodynia induced by TNBS (in words) ([1]; 100 mg/kg sc) | Colonic Threshold ([1]; 200 mg/kg sc) [mm Hg] | Colonic Threshold ([2]; 200 mg/kg sc) [mm Hg] | % Antinociception ([3]; 200 mg/kg sc) [%]
1 | NCC1(CC(=O)O)CCCCC1 [Gabapentin, 1-(aminomethyl)-cyclohexane acetic acid] | 22.03 | 24.69 | completely blocked | 36.88 | inhibited in a dose-related manner | neither gabapentin nor CI-1008 inhibited | 43.75 | -7.73 | 13.62 | 55.07 | 88.01 | significantly and dose-dependently decreased |  |  |  |  |  | 
2 | CC(C)C[C@H](CN)CC(=O)O [CI-1008, (S)-3-(aminomethyl)-5-methylhexanoic acid] | 33.13 |  |  |  | dose-related inhibition | neither gabapentin nor CI-1008 inhibited |  |  | 18.55 |  |  | significantly and dose-dependently decreased | 2172 | 2547 | completely suppressed | 40.47 | 46.41 | 70.81
